Laboratory results reported in patent US20160220569A1, “CDK4/6 Inhibitor Dosage Formulations For The Protection Of Hematopoietic Stem And Progenitor Cells During Chemotherapy” (G1 Therapeutics, Inc., priority 2015, published 2016).
Several values for one entry are separate records, joined by “and”; a condition that tells them apart may be missing. Equal entries are not always repeated. Where two headings read alike, the source gives them in different places.

Assay: Topotecan PK following Compound 1 infusion
Format: in vivo, human
Conditions: human, plasma, intravenous
Procedure: Blood samples were obtained prior to dosing, at the end of the 30-minute infusion (EOI), and at 0.5, 1, 1.5, 2, 2.5, 4, 6, 8, and 24 hours after the end of infusion. Analysis of plasma concentration versus time data for calculation of standard pharmacokinetic (PK) parameters following intravenous infusion administration was conducted using Phoenix WinNonlin version 6.3 using a nominal infusion duration and scheduled blood sampling times. In Cohort 2 there were 3 subjects who received 1.25 mg/m^2 of topotecan once daily on Days 1 to 5. In Cohort 3 there were 4 subjects who received 0.75 mg/m^2 of topotecan once daily on Days 1 to 5.

Work on `CC[C@@]1(O)C(=O)OCc2c1cc1n(c2=O)Cc2cc3c(CN(C)C)c(O)ccc3nc2-1.Cl` [topotecan, (S)-10-[(dimethylamino)methyl]-4-ethyl-4,9-dihydroxy-1H-pyrano[3′,4′:6,7]indolizino[1,2-b]quinoline-3,14(4H,12H)-dione monohydrochloride] yielded a Cmax (Topotecan 0.75 mg/m^2 (Cohort 3) with Compound 1 200 mg/m^2, Day 1, Mean, read-out: Cmax) of 27.3 ng/mL, a half-life (Topotecan 0.75 mg/m^2 (Cohort 3) with Compound 1 200 mg/m^2, Day 1, Mean, read-out: t½ (converted)) of 4.33 h and an AUC (Topotecan 0.75 mg/m^2 (Cohort 3) with Compound 1 200 mg/m^2, Day 1, Median, read-out: AUC24.5) of 89.1 ng·h/mL. For the same compound, the AUC(0-inf) (Topotecan 0.75 mg/m^2 (Cohort 3) with Compound 1 200 mg/m^2, Day 1, Median, read-out: AUCinf (converted)) was 90.8 ng·h/mL and 0.198 µM·h, the AUC (Topotecan 0.75 mg/m^2 (Cohort 3) with Compound 1 200 mg/m^2, Day 1, Median, read-out: AUCx5 (converted)) was 0.992 µM·h and the Cmax (Topotecan 0.75 mg/m^2 (Cohort 3) with Compound 1 200 mg/m^2, Day 1, Median, read-out: Cmax) was 26.4 ng/mL. For the same compound, the half-life (Topotecan 0.75 mg/m^2 (Cohort 3) with Compound 1 200 mg/m^2, Day 1, Median, read-out: t½ (converted)) was 4.3 h, the AUC (Topotecan 0.75 mg/m^2 (Cohort 3) with Compound 1 200 mg/m^2, Day 1, individual subjects, read-out: AUC24.5) was 83.5 ng·h/mL and the AUC(0-inf) (Topotecan 0.75 mg/m^2 (Cohort 3) with Compound 1 200 mg/m^2, Day 1, individual subjects, read-out: AUCinf (converted)) was 84.8 ng·h/mL and 0.185 µM·h. The AUC (Topotecan 0.75 mg/m^2 (Cohort 3) with Compound 1 200 mg/m^2, Day 1, individual subjects, read-out: AUCx5 (converted)) was 0.927 µM·h, the half-life (Topotecan 0.75 mg/m^2 (Cohort 3) with Compound 1 200 mg/m^2, Day 1, individual subjects, read-out: t½ (converted)) was 4.32 h and the AUC (Topotecan 0.75 mg/m^2 (Cohort 3) with Compound 1 200 mg/m^2, Day 4, Mean, read-out: AUCτ (converted)) was 92.4 ng·h/mL and 0.202 µM·h. For the same compound, the Cmax (Topotecan 0.75 mg/m^2 (Cohort 3) with Compound 1 200 mg/m^2, Day 4, Mean, read-out: Cmax) was 24.5 ng/mL, the half-life (Topotecan 0.75 mg/m^2 (Cohort 3) with Compound 1 200 mg/m^2, Day 4, Mean, read-out: t½ (converted)) was 4.78 h and the AUC (Topotecan 0.75 mg/m^2 (Cohort 3) with Compound 1 200 mg/m^2, Day 4, Median, read-out: AUCτ (converted)) was 91.7 ng·h/mL and 0.2 µM·h. For the same compound, the Cmax (Topotecan 0.75 mg/m^2 (Cohort 3) with Compound 1 200 mg/m^2, Day 4, Median, read-out: Cmax) was 24.5 ng/mL, the half-life (Topotecan 0.75 mg/m^2 (Cohort 3) with Compound 1 200 mg/m^2, Day 4, Median, read-out: t½ (converted)) was 4.7 h and the AUC (Topotecan 0.75 mg/m^2 (Cohort 3) with Compound 1 200 mg/m^2, Day 4, individual subjects, read-out: AUCτ (converted)) was 83.7 ng·h/mL and 0.183 µM·h. The Cmax (Topotecan 0.75 mg/m^2 (Cohort 3) with Compound 1 200 mg/m^2, Day 4, individual subjects, read-out: Cmax) was 26.4 ng/mL, the half-life (Topotecan 0.75 mg/m^2 (Cohort 3) with Compound 1 200 mg/m^2, Day 4, individual subjects, read-out: t½ (converted)) was 4.63 h and the AUC (Topotecan 1.25 mg/m^2 (Cohort 2) with Compound 1 200 mg/m^2, Day 1, Mean, read-out: AUC24.5) was 175 ng·h/mL. The AUC(0-inf) (Topotecan 1.25 mg/m^2 (Cohort 2) with Compound 1 200 mg/m^2, Day 1, Mean, read-out: AUCinf (converted)) was 180 ng·h/mL and 0.392 µM·h, the AUC (Topotecan 1.25 mg/m^2 (Cohort 2) with Compound 1 200 mg/m^2, Day 1, Mean, read-out: AUCx5 (converted)) was 1.97 µM·h and the Cmax (Topotecan 1.25 mg/m^2 (Cohort 2) with Compound 1 200 mg/m^2, Day 1, Mean, read-out: Cmax) was 63.7 ng/mL. The half-life (Topotecan 1.25 mg/m^2 (Cohort 2) with Compound 1 200 mg/m^2, Day 1, Mean, read-out: t½ (converted)) was 4.93 h, the AUC (Topotecan 1.25 mg/m^2 (Cohort 2) with Compound 1 200 mg/m^2, Day 1, Median, read-out: AUC24.5) was 159 ng·h/mL and the AUC(0-inf) (Topotecan 1.25 mg/m^2 (Cohort 2) with Compound 1 200 mg/m^2, Day 1, Median, read-out: AUCinf (converted)) was 162 ng·h/mL and 0.355 µM·h. It also gave an AUC (Topotecan 1.25 mg/m^2 (Cohort 2) with Compound 1 200 mg/m^2, Day 1, Median, read-out: AUCx5 (converted)) of 1.77 µM·h, a Cmax (Topotecan 1.25 mg/m^2 (Cohort 2) with Compound 1 200 mg/m^2, Day 1, Median, read-out: Cmax) of 57.7 ng/mL and a half-life (Topotecan 1.25 mg/m^2 (Cohort 2) with Compound 1 200 mg/m^2, Day 1, Median, read-out: t½ (converted)) of 4.92 h. For the same compound, the half-life (Topotecan 1.25 mg/m^2 (Cohort 2) with Compound 1 200 mg/m^2, Day 1, individual subjects, read-out: t½ (converted)) was 4.78 h, the AUC (Topotecan 1.25 mg/m^2 (Cohort 2) with Compound 1 200 mg/m^2, Day 4, Mean, read-out: AUCτ (converted)) was 171 ng·h/mL and 0.375 µM·h and the Cmax (Topotecan 1.25 mg/m^2 (Cohort 2) with Compound 1 200 mg/m^2, Day 4, Mean, read-out: Cmax) was 59.6 ng/mL. The AUC (Topotecan 1.25 mg/m^2 (Cohort 2) with Compound 1 200 mg/m^2, Day 4, Median, read-out: AUCτ (converted)) was 158 ng·h/mL and 0.345 µM·h, the Cmax (Topotecan 1.25 mg/m^2 (Cohort 2) with Compound 1 200 mg/m^2, Day 4, Median, read-out: Cmax) was 41.8 ng/mL and the half-life (Topotecan 1.25 mg/m^2 (Cohort 2) with Compound 1 200 mg/m^2, Day 4, Median, read-out: t½ (converted)) was 5.39 h. For the same compound, the AUC (Topotecan 1.25 mg/m^2 (Cohort 2) with Compound 1 200 mg/m^2, Day 4, individual subjects, read-out: AUCτ (converted)) was 158 ng·h/mL and 0.345 µM·h, the half-life (Topotecan 1.25 mg/m^2 (Cohort 2) with Compound 1 200 mg/m^2, Day 4, individual subjects, read-out: t½ (converted)) was 5.39 h and the AUC (Topotecan […]^2 (Cohort 1) with Compound 1 200 mg/m^2, Day 1, Mean, read-out: AUC24.5) was 150 ng·h/mL. For the same compound, the AUC (Topotecan […]^2 (Cohort 1) with Compound 1 200 mg/m^2, Day 1, Mean, read-out: AUCx5 (converted)) was 1.66 µM·h, the Cmax (Topotecan […]^2 (Cohort 1) with Compound 1 200 mg/m^2, Day 1, Mean, read-out: Cmax) was 69.5 ng/mL and the half-life (Topotecan […]^2 (Cohort 1) with Compound 1 200 mg/m^2, Day 1, Mean, read-out: t½ (converted)) was 4.33 h. For the same compound, the AUC (Topotecan […]^2 (Cohort 1) with Compound 1 200 mg/m^2, Day 1, Median, read-out: AUC24.5) was 150 ng·h/mL, the AUC (Topotecan […]^2 (Cohort 1) with Compound 1 200 mg/m^2, Day 1, Median, read-out: AUCx5 (converted)) was 1.66 µM·h and the Cmax (Topotecan […]^2 (Cohort 1) with Compound 1 200 mg/m^2, Day 1, Median, read-out: Cmax) was 69.5 ng/mL. It also gave a half-life (Topotecan […]^2 (Cohort 1) with Compound 1 200 mg/m^2, Day 1, Median, read-out: t½ (converted)) of 4.33 h, an AUC (Topotecan […]^2 (Cohort 1) with Compound 1 200 mg/m^2, Day 1, individual subjects, read-out: AUC24.5) of 130 ng·h/mL and an AUC (Topotecan […]^2 (Cohort 1) with Compound 1 200 mg/m^2, Day 1, individual subjects, read-out: AUCx5 (converted)) of 1.44 µM·h. The half-life (Topotecan […]^2 (Cohort 1) with Compound 1 200 mg/m^2, Day 1, individual subjects, read-out: t½ (converted)) was 4.56 h, the Cmax (Topotecan […]^2 (Cohort 1) with Compound 1 200 mg/m^2, Day 4, Mean, read-out: Cmax) was 89.3 ng/mL and the half-life (Topotecan […]^2 (Cohort 1) with Compound 1 200 mg/m^2, Day 4, Mean, read-out: t½ (converted)) was 4.87 h. The Cmax (Topotecan […]^2 (Cohort 1) with Compound 1 200 mg/m^2, Day 4, Median, read-out: Cmax) was 89.3 ng/mL, the half-life (Topotecan […]^2 (Cohort 1) with Compound 1 200 mg/m^2, Day 4, Median, read-out: t½ (converted)) was 4.87 h and the half-life (Topotecan […]^2 (Cohort 1) with Compound 1 200 mg/m^2, Day 4, individual subjects, read-out: t½ (converted)) was 5.11 h. For the same compound, the AUC(0-inf) (topotecan 0.75 mg/m^2 (Cohort 3) after Compound 1 200 mg/m^2, Day 1, mean, read-out: AUCinf averaged) was 94.4 ng·h/mL, the Cmax (topotecan 0.75 mg/m^2 (Cohort 3) after Compound 1 200 mg/m^2, Day 1, mean, read-out: Cmax averaged) was 27.3 ng/mL and the half-life (topotecan 0.75 mg/m^2 (Cohort 3) after Compound 1 200 mg/m^2, Day 1, mean, read-out: Half-lives averaged (converted)) was 4.33 h. For the same compound, the Cmax (topotecan 0.75 mg/m^2 (Cohort 3) after Compound 1 200 mg/m^2, Day 4, mean, read-out: Cmax averaged) was 24.5 ng/mL, the AUC(0-inf) (topotecan 1.25 mg/m^2 (Cohort 2) after Compound 1 200 mg/m^2, Day 1, mean, read-out: AUCinf averaged) was 180 ng·h/mL and the Cmax (topotecan 1.25 mg/m^2 (Cohort 2) after Compound 1 200 mg/m^2, Day 1, mean, read-out: Cmax averaged) was 63.7 ng/mL. For the same compound, the half-life (topotecan 1.25 mg/m^2 (Cohort 2) after Compound 1 200 mg/m^2, Day 1, mean, read-out: Half-lives averaged (converted)) was 4.93 h, the Cmax (topotecan 1.25 mg/m^2 (Cohort 2) after Compound 1 200 mg/m^2, Day 4, mean, read-out: Cmax averaged) was 59.6 ng/mL and the AUC(0-inf) (topotecan […]^2 (Cohort 1) after Compound 1 200 mg/m^2, Day 1, mean, read-out: AUCinf averaged) was 152 ng·h/mL. The Cmax (topotecan […]^2 (Cohort 1) after Compound 1 200 mg/m^2, Day 1, mean, read-out: Cmax averaged) was 69.5 ng/mL, the half-life (topotecan […]^2 (Cohort 1) after Compound 1 200 mg/m^2, Day 1, mean, read-out: Half-lives averaged (converted)) was 4.33 h and the Cmax (topotecan […]^2 (Cohort 1) after Compound 1 200 mg/m^2, Day 4, mean, read-out: Cmax averaged) was 89.3 ng/mL. It also gave a half-life (read-out: t½ (converted)) of 5.45 h.
